Assays:
Assay type in all cases: in vivo
[1] = system: Two-Spotted Spider Mite (Tetranychus urticae); experiment: Two-spotted spider mite (Tetranychus urticae) spray test on kidney bean; conditions: after 7 days; for pest or weed control at 20 ppm: Tetranychus urticae, 168 h, read-out: acaricidal activity
Experimental: (§1) Unless not mentioned otherwise, the test solutions were prepared as follows:
(§2) Solvent: 3 parts by weight Dimethylformamide
(§3) Emulsifier: 1 part by weight Polyoxyethylene alkyl phenyl ether
(§4) In order to make an appropriate formulation of an active compound, 1 part by weight of the active compound is mixed with the above mentioned amount of solvent and emulsifier and the mixture is diluted with water to a prescribed concentration. Ammonium salt or ammonium salt and penetration enhancer in a dosage of 1000 ppm are added to the desired concentration if necessary.
50 to 100 adult mites of Tetranychus urticae were inoculated to leaves of kidney bean at two-leaf stage planted in a pot of 6 cm in diameter. After one day, test solution at the appropriate concentration was sprayed thereon in a sufficient amount using a spray gun. After the spraying, the plant pot was placed inside a greenhouse, and after 7 days, the acaricidal activity was calculated. An acaricidal activity of 100% means that all mites were killed, whereas an acaricidal activity of 0% means that no mite was killed.

[2] = system: Larvae of Spodoptera litura; experiment: Larvae of Spodoptera litura, method using artificial feeds; conditions: artificial feed, after 7 days; for pest or weed control at 20 ppm: Spodoptera litura, 168 h, read-out: insecticidal activity (pesticidal ratio)
Experimental: as §1, §2, §3, §4
[A Method Using Artificial Feeds (Trade Name: Insecta LFM, Manufactured by Nosan Corporation)]
Powdery artificial feeds (2.3 g) were added to a plastic cup (diameter: 7.5 cm, height: 4 cm) to achieve a certain thickness. Water-diluted liquid (5 ml) of the active compound prepared above having predetermined concentration was evenly poured thereto and allowed to stand until the feeds were solidified. Five of the 3rd-instar larvae of Spodoptera litura were released in respective cups, and covered. The cups were put in a temperature controlled room at 25° C. and humidity of 50 to 60%, and the number of dead larvae after 7 days was determined to calculate the pesticidal ratio. 100% pesticidal ratio means death of all the larvae, while 0% pesticidal ratio means no dead larvae.

[3] = system: Cucurbit Leaf Beetle (Aulacophora femoralis); experiment: Cucurbit leaf beetle (Aulacophora femoralis) cucumber leaf dip test; conditions: after 7 days
Experimental: as §1, §2, §3, §4
Leaves of cucumber were immersed in the test solution at the appropriate concentration, and the leaves were dried in air. The leaves were then put in a plastic cup containing sterilized black soil and five Aulacophora femoralis at second instar larvae were released in the cup. The cups were placed in a temperature-controlled chamber at 25° C. After 7 days, the number of dead larvae was counted, and thus the insecticidal activity was calculated. An insecticidal activity of 100% means that all larvae were killed, whereas an insecticidal activity of 0% means that no larva was killed.

[4] = active compound concentration 20 ppm
[5] = active compound concentration 4 ppm
[6] = active compound concentration 100 ppm

SMILES | acaricidal activity [1, 4] [%] | insecticidal activity (pesticidal ratio) [2, 4] [%] | insecticidal activity [3, 4] [%] | insecticidal activity (pesticidal ratio) [2, 5] [%] | also measured
Cc1cc(N2CCC(c3cc(C(F)(F)F)cc(C(F)(F)F)c3)(C(F)(F)F)C2O)ccc1CNC(=O)C1CC1 (mixture of isomers) [A1-187] | 100 | 100 | 100 | – | –
CC(=O)NCc1ccc(N2CCC(c3cc(Cl)c(F)c(Cl)c3F)(C(F)(F)F)C2O)nc1Br (centres unmarked) [A3-322] | 98 | – | – | 100 | –
Cc1nc(N2CCC(c3cc(C(F)(F)F)cc(C(F)(F)F)c3)(C(F)(F)F)C2O)ccc1CNC(=O)CC1CC1 (centres unmarked) [A3-127] | 100 | – | 100 | 80 | acaricidal activity [1, 5]: 100%; insecticidal activity [3, 5]: 100%
COCCC(=O)NCc1ccc(N2CCC(c3cc(Cl)cc(Cl)c3)(C(F)(F)F)C2O)cc1C(F)(F)F (centres unmarked) [A1-41] | 100 | 100 | – | – | –
N#CCC(=O)NCc1ccc(N2CCC(c3cc(Cl)c(Cl)c(Cl)c3)(C(F)(F)F)C2O)cc1Br (centres unmarked) [A1-525] | – | – | – | 100 | acaricidal activity [1, 5]: 100%
CCC(=O)NCc1ccc(N2CCC(c3cc(Cl)c(Cl)c(Cl)c3)(C(F)(F)F)C2O)cc1Br (centres unmarked) [A1-162, N-{2-bromo-4-[2-hydroxy-3-(3,4,5-trichlorophenyl)-3-(trifluoromethyl)pyrrolidin-1-yl]benzyl}propanamide] | – | – | – | – | pest or weed control at 20 ppm [1, 4]: 100%; pest or weed control at 20 ppm [2, 4]: 100%; pest or weed control at 20 ppm ([3]; Aulacophora, foliar, 168 h, active compound concentration 20 ppm, read-out: insecticidal activity): 100%
O=C(NCc1ccc(N2CCC(c3cc(Cl)cc(Cl)c3)(C(F)(F)F)C2O)nc1C(F)(F)F)C1CC1 (centres unmarked) [A3-5] | 100 | 100 | 100 | – | –
O=C(NCc1ccc(N2CCC(c3cc(Cl)c(F)c(Cl)c3)(C(F)(F)F)C2O)cc1C(F)(F)F)C1CC1 (centres unmarked) [A1-275] | 100 | 100 | 100 | – | –
O=C(CC(F)(F)F)NCc1ccc(N2CCC(c3cc(Cl)c(Cl)c(Cl)c3)(C(F)(F)F)C2O)cc1C(F)(F)F (centres unmarked) [A1-51] | 100 | 100 | 100 | – | –
CS(=O)(=O)CC(=O)NCc1ccc(N2CCC(c3cc(C(F)(F)F)cc(C(F)(F)F)c3)(C(F)(F)F)C2O)cc1Cl (centres unmarked) [A1-33] | 100 | 100 | 100 | – | –
O=C(NCc1ccc(N2CCC(c3cc(Cl)c(Cl)c(Cl)c3)(C(F)(F)F)C2O)cc1C(F)(F)F)C1CC1 (centres unmarked) [A1-49] | 100 | 100 | 100 | – | –
C[S+]([O-])CC(=O)NCc1cnc(N2CCC(c3cc(C(F)(F)F)cc(C(F)(F)F)c3)(C(F)(F)F)C2O)nc1C(F)(F)F (centres unmarked) [A4-32] | 100 | 100 | 100 | – | –
CCC(=O)NCc1ccc(N2CCC(c3cc(C(F)(F)F)cc(C(F)(F)F)c3)(C(F)(F)F)C2O)cc1F (mixture of isomers) [A1-206] | 100 | 100 | 100 | – | –
CS(=O)(=O)CC(=O)NCc1ccc(N2CCC(c3cc(Cl)cc(Cl)c3)(C(F)(F)F)C2O)cc1C(F)(F)F (centres unmarked) [A1-44] | 100 | 100 | 100 | – | –
O=C(NCc1ccc(N2CCC(c3cc(Cl)c(F)c(Cl)c3)(C(F)(F)F)C2O)nc1C(F)(F)F)C1CC1 (mixture of isomers) [A3-203] | 100 | 100 | 100 | – | –
CC(=O)NCc1ccc(N2CCC(c3cc(Cl)cc(Cl)c3F)(C(F)(F)F)C2O)nc1C(F)(F)F (centres unmarked) [A3-344] | 100 | – | – | 100 | insecticidal activity [3, 5]: 100%

SMILES | acaricidal activity [1, 4] [%] | insecticidal activity (pesticidal ratio) [2, 4] [%] | insecticidal activity [3, 4] [%] | insecticidal activity (pesticidal ratio) [2, 5] [%] | also measured
CCc1nc(N2CCC(c3cc(C(F)(F)F)cc(C(F)(F)F)c3)(C(F)(F)F)C2O)ccc1CNC(=O)C1CC1 (centres unmarked) [A3-137] | 100 | 100 | 100 | – | –
O=C(CC(F)(F)F)NCc1ccc(N2CCC(c3cc(Cl)cc(Cl)c3)(C(F)(F)F)C2O)cc1Cl (centres unmarked) [A1-7] | 100 | 100 | 100 | – | –
CC(=O)NCc1ccc(N2CCC(c3cc(Cl)c(F)c(Cl)c3F)(C(F)(F)F)C2O)cc1Br (centres unmarked) [A1-429] | 100 | – | – | 100 | insecticidal activity [3, 5]: 100%
CC(C)(C)OC(=O)NCc1ccc(N2CCC(c3cc(Cl)c(Cl)c(Cl)c3)(C(F)(F)F)C2O)cc1 (centres unmarked) [A1-575] | – | – | – | – | acaricidal activity [1, 6]: 98%; insecticidal activity (pesticidal ratio) [2, 6]: 80%; insecticidal activity [3, 6]: 100%
CC(=O)NCc1ccc(N2CCC(c3cc(Cl)cc(Cl)c3F)(C(F)(F)F)C2O)cc1C(F)(F)F (centres unmarked) [A1-405] | – | – | – | 100 | acaricidal activity [1, 5]: 100%; insecticidal activity [3, 5]: 100%
N#CCC(=O)NCc1ccc(N2CCC(c3cc(C(F)(F)F)cc(C(F)(F)F)c3)(C(F)(F)F)C2O)cc1C(F)(F)F (centres unmarked) [A1-528] | – | – | – | 100 | acaricidal activity [1, 5]: 98%; insecticidal activity [3, 5]: 100%
CCCC(=O)NCc1ccc(N2CCC(c3cc(Cl)cc(Cl)c3)(C(F)(F)F)C2O)cc1C(F)(F)F (centres unmarked) [A1-36] | 100 | 100 | – | – | –
CCC(=O)NCc1ccc(N2CCC(c3cc(Cl)c(Cl)c(Cl)c3)(C(F)(F)F)C2O)nc1C (centres unmarked) [A3-79, N-({6-[2-hydroxy-3-(3,4,5-trichlorophenyl)-3-(trifluoromethyl)-pyrrolidin-1-yl]-2-methylpyridin-3-yl}methyl)propanamide] | – | – | – | – | pest or weed control at 20 ppm [1, 4]: 100%; pest or weed control at 20 ppm [2, 4]: 100%
CCNC(=O)NCc1ccc(N2CCC(c3cc(Cl)c(Cl)c(Cl)c3)(C(F)(F)F)C2O)nc1C(F)(F)F (centres unmarked) [A3-297] | 100 | 100 | – | 100 | acaricidal activity [1, 5]: 100%
CC(C)CC(=O)NCc1ccc(N2CCC(c3cc(Cl)c(Cl)c(Cl)c3)(C(F)(F)F)C2O)nc1C(F)(F)F (centres unmarked) [A3-288] | 100 | 100 | – | 100 | acaricidal activity [1, 5]: 100%
CC(=O)NC(C)c1ccc(N2CCC(c3cc(Cl)c(Cl)c(Cl)c3)(C(F)(F)F)C2O)cc1 (mixture of isomers) [A2-12] | 100 | 100 | – | – | –
CCC(=O)NCc1ccc(N2CCC(c3cc(Cl)cc(Cl)c3)(C(F)(F)F)C2O)cc1Cl (centres unmarked) [A1-2] | 100 | – | 100 | – | –
CC(=O)NCc1ccc(N2CCC(c3cc(Cl)c(Cl)c(Cl)c3)(C(F)(F)F)C2O)cc1Cl (centres unmarked) [A1-12] | 100 | 100 | – | – | –
N#CCC(=O)NCc1ccc(N2CCC(c3cc(Cl)c(Cl)c(Cl)c3)(C(F)(F)F)C2O)nc1C(F)(F)F (centres unmarked) [A3-421] | 100 | – | – | 100 | –
CC(=O)NCc1ccc(N2CCC(c3cc(Cl)c(Cl)c(Cl)c3)(C(F)(F)F)C2O)cc1C(F)(F)F (centres unmarked) [A1-45] | 100 | 100 | – | – | –
COCCC(=O)NCc1ccc(N2CCC(c3cc(Cl)cc(Cl)c3)(C(F)(F)F)C2O)cc1Cl (centres unmarked) [A1-8] | 100 | – | 100 | – | –
